# Measurements from paper PMC7377239, “Cardiovascular Effects of Polychlorinated Biphenyls and Their Major Metabolites” (Environmental Health Perspectives, 2020).
# Where two headings read alike, the source gives them in different places.
# How the values were obtained:
# [1] = tested on: HUVECs; assay: High-content imaging cytotoxicity in HUVECs, 24 h; type: cell-based, human; details: Homo sapiens, HUVEC, 24 h, HUVECs; for viability at 0.01 µM / activity at 0.01 µM / viability at 0.1 µM / activity at 0.1 µM / viability at 1 µM / activity at 1 µM / viability at 10 µM / activity at 10 µM / viability at 100 µM / activity at 100 µM: 0.00 µM = 100.00; for viability at 0.1 µM / activity at 0.1 µM: 0.10 µM; for minimal effective concentration: top concentration 100.00 µM
# Method in brief: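 Point-of-departure values come from four-parameter logistic fits of vehicle-normalized (0.5% DMSO) imaging readouts, cutoff one SD of vehicle means, 100μM where no concentration–response. Cells: HUVEC monolayers, passages 1–5, treated 24 h at 37°C, 5% CO2, then Hoechst 33342/MitoTracker Orange/calcein AM stained, imaged at 10×.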
# [2] = tested on: iCell cardiomyocytes (human iPSC-derived cardiomyocytes); assay: High-content imaging of cytotoxicity and mitochondrial integrity in iPSC-CMs; type: cell-based; details: Homo sapiens, Cardiomyocyte; for viability at 0.01 µM / activity at 0.01 µM / viability at 0.1 µM / activity at 0.1 µM / viability at 1 µM / activity at 1 µM / viability at 10 µM / activity at 10 µM / viability at 100 µM / activity at 100 µM: 0.00 µM = 100.00; for viability at 0.1 µM / activity at 0.1 µM: 0.10 µM
# Method in brief: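 This assay measured cytotoxicity and mitochondrial integrity in iPSC cardiomyocytes held in 40μL maintenance medium. After compound exposure, a 2× staining solution with Hoechst 33342 (4μg/mL) and MitoTracker™ Orange (0.4μM) was applied for 15 min at 37°C. Cells were washed, fixed with 3.7% formaldehyde, imaged on DAPI and Cy3 channels, and scored in MetaXpress®.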
# [3] = 24 hr, read-out: huvec.cyto.24hr
# [4] = 24 hr, read-out: huvec.mito.24hr
# [5] = 24 hr, read-out: huvec.mitoint.24hr
# [6] = 24 hr, read-out: huvec.nma.24hr
# [7] = 24 hrs, read-out: huvec.tc.24hrs
# [8] = 1.5 h, 90min, read-out: cm.cam.90min
# [9] = 1.5 h, 90min, read-out: cm.mii.90min
# [10] = 1.5 h, 90min, read-out: cm.mito.90min
# [11] = 1.5 h, 90min, read-out: cm.tc.90min
# [12] = 24 h, 24hrs, read-out: cm.cam.24hrs
# [13] = 24 h, 24hrs, read-out: cm.mii.24hrs
# [14] = 24 h, 24hrs, read-out: cm.mito.24hrs
# [15] = 24 h, 24hrs, read-out: cm.tc.24hrs
compound,measurement,setting,value
Clc1ccc(Cl)c(-c2cc(Cl)ccc2Cl)c1 [PCB52],viability at 0.01 µM,[1]; [3],94.7%
same,activity at 0.01 µM,[1]; [4],94.8%
same,activity at 0.01 µM,[1]; [5],107%
same,activity at 0.01 µM,[1]; [6],101%
same,viability at 0.1 µM,[1]; [3],97.3%
same,activity at 0.1 µM,[1]; [4],96.5%
same,activity at 0.1 µM,[1]; [5],116%
same,activity at 0.1 µM,[1]; [6],97.7%
same,viability at 1 µM,[1]; [3],92.5%
same,activity at 1 µM,[1]; [4],92%
same,activity at 1 µM,[1]; [5],106%
same,activity at 1 µM,[1]; [6],100%
same,viability at 10 µM,[1]; [3],66.8%
same,activity at 10 µM,[1]; [4],60%
same,activity at 10 µM,[1]; [5],55.7%
same,activity at 10 µM,[1]; [6],74.2%
same,viability at 100 µM,[1]; [3],45%
same,activity at 100 µM,[1]; [4],20.7%
same,activity at 100 µM,[1]; [5],14.1%
same,activity at 100 µM,[1]; [6],49.2%
same,minimal effective concentration,"[1]; 24 hr, read-out: huvec.cyto.24hr POD",0.67 µM
same,minimal effective concentration,"[1]; 24 hr, read-out: huvec.mito.24hr POD",0.57 µM
same,minimal effective concentration,"[1]; 24 hr, read-out: huvec.mitoint.24hr POD",6.01 µM
same,minimal effective concentration,"[1]; 24 hr, read-out: huvec.nma.24hr POD",4.97 µM
same,viability at 0.01 µM,[1]; [7],94.7%
same,viability at 0.1 µM,[1]; [7],97.3%
same,viability at 1 µM,[1]; [7],92.5%
same,viability at 10 µM,[1]; [7],66.8%
same,viability at 100 µM,[1]; [7],45%
same,minimal effective concentration,"[1]; 24 hrs, read-out: huvec.tc.24hrs POD",0.67 µM
same,viability at 0.01 µM,[2]; [8],98.6%
same,activity at 0.01 µM,[2]; [9],115%
same,activity at 0.01 µM,[2]; [10],98.4%
same,viability at 0.01 µM,[2]; [11],98.4%
same,viability at 0.1 µM,[2]; [8],95.8%
same,activity at 0.1 µM,[2]; [9],118%
same,activity at 0.1 µM,[2]; [10],95.7%
same,viability at 0.1 µM,[2]; [11],95.6%
same,viability at 1 µM,[2]; [8],101%
same,activity at 1 µM,[2]; [9],107%
same,activity at 1 µM,[2]; [10],102%
same,viability at 1 µM,[2]; [11],102%
same,viability at 10 µM,[2]; [8],106%
same,activity at 10 µM,[2]; [9],94.2%
same,activity at 10 µM,[2]; [10],106%
same,viability at 10 µM,[2]; [11],106%
same,viability at 100 µM,[2]; [8],0.44%
same,activity at 100 µM,[2]; [9],12.8%
same,activity at 100 µM,[2]; [10],0.55%
same,viability at 100 µM,[2]; [11],1.04%
same,minimal effective concentration,"[2]; 1.5 h, 90min, read-out: cm.cam.90min POD",36 µM
same,minimal effective concentration,"[2]; 1.5 h, 90min, read-out: cm.mii.90min POD",10.4 µM
same,minimal effective concentration,"[2]; 1.5 h, 90min, read-out: cm.mito.90min POD",39.2 µM
same,minimal effective concentration,"[2]; 1.5 h, 90min, read-out: cm.tc.90min POD",38.9 µM
same,viability at 0.01 µM,[2]; [12],93.5%
same,activity at 0.01 µM,[2]; [13],103%
same,activity at 0.01 µM,[2]; [14],91.8%
same,viability at 0.01 µM,[2]; [15],94.3%
same,viability at 0.1 µM,[2]; [12],98.9%
same,activity at 0.1 µM,[2]; [13],117%
same,activity at 0.1 µM,[2]; [14],99.3%
same,viability at 0.1 µM,[2]; [15],98.8%
same,viability at 1 µM,[2]; [12],95.8%
same,activity at 1 µM,[2]; [13],112%
same,activity at 1 µM,[2]; [14],95.8%
same,viability at 1 µM,[2]; [15],96.3%
same,viability at 10 µM,[2]; [12],92%
same,activity at 10 µM,[2]; [13],103%
same,activity at 10 µM,[2]; [14],90.3%
same,viability at 10 µM,[2]; [15],92.3%
same,viability at 100 µM,[2]; [12],3.37%
same,activity at 100 µM,[2]; [13],5.38%
same,activity at 100 µM,[2]; [14],0.14%
same,viability at 100 µM,[2]; [15],7.71%
same,minimal effective concentration,"[2]; 24 h, read-out: cm.cam.24hrs POD",7.5 µM
same,minimal effective concentration,"[2]; 24 h, read-out: cm.mii.24hrs POD",34.4 µM
same,minimal effective concentration,"[2]; 24 h, read-out: cm.mito.24hrs POD",7.32 µM
same,minimal effective concentration,"[2]; 24 h, read-out: cm.tc.24hrs POD",8.11 µM
